Test results taken from PubChem BioAssay AID2060491 (Molecular Pharmacology Branch, DTP, NCI, 2025).

System: 857933-349-R-J2-PDC complex spheroids, viability
Assay: Anticancer human tumor 857933-349-R-J2-PDC patient-derived colon adenocarcinoma cell line growth inhibition [GQUAD]
Details: for IC50: curve of first compound; for viability, T/C: stronger effect = lower value
Summary of the method: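 Viability of tumor cells grown as complex spheroids with endothelial and stromal cells, exposed to drug combinations. Top concentration at or near clinical Cmax (else 10 microM), diluted in half-log increments.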

[1] = second compound 0.0316 µM, first compound 0.0316 µM
[2] = second compound 0.0316 µM, first compound 0.1 µM
[3] = second compound 0.0316 µM, first compound 0.316 µM
[4] = second compound 0.0316 µM, first compound 1 µM
[5] = second compound 0.0316 µM, first compound 3.16 µM
[6] = second compound 0.0316 µM, first compound 10 µM
[7] = second compound 0.1 µM, first compound 0.0316 µM
[8] = second compound 0.1 µM, first compound 0.1 µM
[9] = second compound 0.1 µM, first compound 0.316 µM
[10] = second compound 0.1 µM, first compound 1 µM
[11] = second compound 0.1 µM, first compound 3.16 µM
[12] = second compound 0.1 µM, first compound 10 µM
[13] = second compound 0.316 µM, first compound 0.0316 µM
[14] = second compound 0.316 µM, first compound 0.1 µM
[15] = second compound 0.316 µM, first compound 0.316 µM
[16] = second compound 0.316 µM, first compound 1 µM
[17] = second compound 0.316 µM, first compound 3.16 µM
[18] = second compound 0.316 µM, first compound 10 µM
[19] = second compound 1 µM, first compound 0.0316 µM
[20] = second compound 1 µM, first compound 0.1 µM
[21] = second compound 1 µM, first compound 0.316 µM
[22] = second compound 1 µM, first compound 1 µM
[23] = second compound 1 µM, first compound 3.16 µM
[24] = second compound 1 µM, first compound 10 µM
[25] = second compound 3.16 µM, first compound 0.0316 µM
[26] = second compound 3.16 µM, first compound 0.1 µM
[27] = second compound 3.16 µM, first compound 0.316 µM
[28] = second compound 3.16 µM, first compound 1 µM
[29] = second compound 3.16 µM, first compound 3.16 µM
[30] = second compound 3.16 µM, first compound 10 µM
[31] = second compound 10 µM, first compound 0.0316 µM
[32] = second compound 10 µM, first compound 0.1 µM
[33] = second compound 10 µM, first compound 0.316 µM
[34] = second compound 10 µM, first compound 1 µM
[35] = second compound 10 µM, first compound 3.16 µM
[36] = second compound 10 µM, first compound 10 µM
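Note: spheroids exposed to compounds for one week before readout.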
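Throughout, for viability, T/C: percent viability relative to vehicle DMSO wells taken as 100%.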

C#Cc1c(F)ccc2cc(O)cc(-c3ncc4c(N5CC6CCC(C5)N6)nc(OCC56CCCN5CC(F)C6)nc4c3F)c12 (stereo unspecified) + Cc1cnc(CNC(=O)c2c(=O)c3ccc(N4CCCN(C)CC4)nc3n3c2sc2ccccc23)cn1
IC50 (second compound 0.0316 µM): > 10000 nM | IC50 (second compound 0.1 µM): > 10000 nM | IC50 (second compound 0.316 µM): < 31.6 nM | IC50 (second compound 1 µM): < 31.6 nM | IC50 (second compound 3.16 µM): < 31.6 nM | IC50 (second compound 10 µM): < 31.6 nM | viability, T/C [1]: 101% | viability, T/C [2]: 81.6% | viability, T/C [3]: 72.6% | viability, T/C [4]: 64.5% | viability, T/C [5]: 76.5% | viability, T/C [6]: 63.5% | viability, T/C [7]: 59% | viability, T/C [8]: 64.7% | viability, T/C [9]: 54.6% | viability, T/C [10]: 61.5% | viability, T/C [11]: 68.3% | viability, T/C [12]: 64.3% | viability, T/C [13]: 23.7% | viability, T/C [14]: 24.6% | viability, T/C [15]: 22.4% | viability, T/C [16]: 19.5% | viability, T/C [17]: 22.6% | viability, T/C [18]: 25.7% | viability, T/C [19]: 3.9% | viability, T/C [20]: 5% | viability, T/C [21]: 2.72% | viability, T/C [22]: 2.84% | viability, T/C [23]: 3.14% | viability, T/C [24]: 1.95% | viability, T/C [25]: 2.08% | viability, T/C [26]: 2.35% | viability, T/C [27]: 1.86% | viability, T/C [28]: 1.3% | viability, T/C [29]: 1.63% | viability, T/C [30]: 0.57% | viability, T/C [31]: 0.16% | viability, T/C [32]: 0.2% | viability, T/C [33]: 0.25% | viability, T/C [34]: 0.19% | viability, T/C [35]: 0.24% | viability, T/C [36]: 0.21%

CC(=O)O[C@H]1C(=O)[C@@]2(C)[C@H]([C@H](OC(=O)c3ccccc3)[C@]3(O)C[C@H](OC(=O)[C@H](O)[C@@H](NC(=O)c4ccccc4)c4ccccc4)C(C)=C1C3(C)C)[C@]1(OC(C)=O)CO[C@@H]1C[C@@H]2O + Cc1cnc(CNC(=O)c2c(=O)c3ccc(N4CCCN(C)CC4)nc3n3c2sc2ccccc23)cn1
IC50 (second compound 0.0316 µM): < 31.6 nM | IC50 (second compound 0.1 µM): < 31.6 nM | IC50 (second compound 0.316 µM): < 31.6 nM | IC50 (second compound 1 µM): < 31.6 nM | IC50 (second compound 3.16 µM): < 31.6 nM | IC50 (second compound 10 µM): < 31.6 nM | viability, T/C [1]: 40.6% | viability, T/C [2]: 13.7% | viability, T/C [3]: 8.87% | viability, T/C [4]: 6.32% | viability, T/C [5]: 6.9% | viability, T/C [6]: 11.3% | viability, T/C [7]: 31.5% | viability, T/C [8]: 14% | viability, T/C [9]: 6.78% | viability, T/C [10]: 6.48% | viability, T/C [11]: 6.61% | viability, T/C [12]: 7.71% | viability, T/C [13]: 14.6% | viability, T/C [14]: 9.67% | viability, T/C [15]: 5.73% | viability, T/C [16]: 5.21% | viability, T/C [17]: 4.57% | viability, T/C [18]: 6.73% | viability, T/C [19]: 3.73% | viability, T/C [20]: 3.78% | viability, T/C [21]: 3.68% | viability, T/C [22]: 2.27% | viability, T/C [23]: 2.21% | viability, T/C [24]: 3.57% | viability, T/C [25]: 2.95% | viability, T/C [26]: 2.49% | viability, T/C [27]: 1.98% | viability, T/C [28]: 1.77% | viability, T/C [29]: 1.78% | viability, T/C [30]: 2.45% | viability, T/C [31]: 0.16% | viability, T/C [32]: 0.18% | viability, T/C [33]: 0.19% | viability, T/C [34]: 0.14% | viability, T/C [35]: 0.17% | viability, T/C [36]: 0.19%

O=c1[nH]cc(F)c(=O)[nH]1 + Cc1cnc(CNC(=O)c2c(=O)c3ccc(N4CCCN(C)CC4)nc3n3c2sc2ccccc23)cn1
IC50 (second compound 0.0316 µM): 1500 nM | IC50 (second compound 0.1 µM): 859 nM | IC50 (second compound 0.316 µM): < 31.6 nM | IC50 (second compound 1 µM): < 31.6 nM | IC50 (second compound 3.16 µM): < 31.6 nM | IC50 (second compound 10 µM): < 31.6 nM | viability, T/C [1]: 95% | viability, T/C [2]: 95.9% | viability, T/C [3]: 87.3% | viability, T/C [4]: 60.8% | viability, T/C [5]: 30% | viability, T/C [6]: 18.9% | viability, T/C [7]: 72.2% | viability, T/C [8]: 84.7% | viability, T/C [9]: 64.8% | viability, T/C [10]: 47% | viability, T/C [11]: 26.3% | viability, T/C [12]: 13.6% | viability, T/C [13]: 25.4% | viability, T/C [14]: 29.3% | viability, T/C [15]: 22.8% | viability, T/C [16]: 15.7% | viability, T/C [17]: 11% | viability, T/C [18]: 5.17% | viability, T/C [19]: 5.21% | viability, T/C [20]: 5.61% | viability, T/C [21]: 4.05% | viability, T/C [22]: 4.64% | viability, T/C [23]: 4.34% | viability, T/C [24]: 3.5% | viability, T/C [25]: 2.29% | viability, T/C [26]: 3.17% | viability, T/C [27]: 3.1% | viability, T/C [28]: 2.6% | viability, T/C [29]: 3.16% | viability, T/C [30]: 3.13% | viability, T/C [31]: 1.93% | viability, T/C [32]: 2.51% | viability, T/C [33]: 2.25% | viability, T/C [34]: 1.52% | viability, T/C [35]: 2.21% | viability, T/C [36]: 1.32%
